Source: patent US7632871B2, “Methods of making and methods of using antiseptic disinfectant, cosmetic and toiletries, medicine or food containing the same” (Mandom Corporation, priority 2002, dated 2009)

Tests used:
Type in all cases: cell-based
[1] = system: Staphylococcus aureus IF013276; assay: Dual minimum inhibitory concentration (agar dilution MIC) of 1,2-octanediol combined with a fragrance component, Staphylococcus aureus; conditions: fragrance component combined with 1,2-octanediol (50:50 by weight mixture); agar medium, 35° C., growth judged after two days
Experimental: (§1) Candida albicans IFO1594 (mycotic stomatitis), Staphylococcus aureus IF013276 (Staphylococcus aureus), and Pseudomonas aeruginosa IF013275 (Pseudomonas) are used as sample bacterias.
(§2) For preparing bacteria, as to Staphylococcus aureus and Pseudomonas, they are incubated at 35° C. in the agar medium, and further incubated at 35° C. after transferred into the bouillon medium. The inoculating bacteria is prepared by diluting the obtained culture solution to about 10^8 inoculating cell/ml.
(§3) With a dilution solvent of ethyl cellosolve of 20 w/w %, 1,2-octanediol solution of 5, 4, 3, 2.5, 2.25, 2, 1.75, 1.5, 1.25 and 1 w/v % are prepared.
(§4) While, as to thymol and the 50:50 by weight mixture of 1,2-octanediol and thymol, the dilution series are prepared by doubling diluting the 20w/v % solution.
(§5) 1 ml of each of the above-mentioned dilution series including the test material and 9 ml of the agar medium are introduced to each schales, and the above-mentioned inoculating bacteria was applied on each of the schales at the length of 1 cm.
(§6) Staphylococcus aureus and Pseudomonas were incubated at 35° C., and it was judged whether or not the bacteria had grown two days later. The yeast was incubated at 25° C., and it was judged whether or not the bacteria had grown three days later.
(§7) Each MIC of the obtained 1,2-octanediol, thymol, and the 50:50 mixture by weight of 1,2-octanediol and thymol corresponding the compounding amount of 1,2-octanediol and thymol is plotted to make out the dual minimum inhibitory concentration. Action and effect in case that two kinds of antibacterial materials are compounded can be judged by the dual minimum inhibitory concentration. More specifically, the actions caused by compounding two antibacterial materials are roughly classified into synergistic action, additive action and counteraction. Synergistic action is the action in that two kinds of agent act synergistically, to enhance the antibacterial activity that the agents originally have. The additive action is the action in that the antibacterial activities of the agents are put together. The counteraction is the action in that one agent cancels the antibacterial activity of the other agent.
(§8) The method using dual minimum inhibitory concentration, as shown in FIG. 1 for example, is the method to measure MICs as to material A and Material B at different proportions of them and to judge the result in view of the graph. In this method, a line is drawn to connect MIC (point A) in using only material A to MIC (point B) in using only material B. When the MIC (point C) in using both materials is inside the line, it is judged to be Synergistic action that antibacterial activity was strengthened by the combined use. When the MIC (point D) is on the line, it can be judged to be the additive action. When the MIC (point E) is in the outside of the line, it is judged to be the counteraction that cancels antibacterial activity of one or both of the materials to decrease the antibacterial activity.
(§9) The antibacterial effect in the case of mixing 1,2-octanediol and thymol was evaluated by the following evaluation criterion from dual minimum inhibitory concentration diagram in FIG. 2.

Candida albicans IFO1594 = assay: Dual minimum inhibitory concentration (agar dilution MIC) of 1,2-octanediol combined with a fragrance component, Candida albicans; conditions: fragrance component combined with 1,2-octanediol (50:50 by weight mixture); agar medium, 25° C., growth judged after three days
Experimental: as §1
As to yeast (Candida albicans), the inoculating bacteria is prepared by incubating the yeast in the same way as Staphylococcus aureus and Pseudomonas at 30° C. and diluting the yeast to about 10^7 cell/ml.
as §3, §4, §5, §6, §7, §8, §9

[2] = system: Pseudomonas aeruginosa IF013275; assay: Dual minimum inhibitory concentration (agar dilution MIC) of 1,2-octanediol combined with a fragrance component, Pseudomonas aeruginosa; conditions: fragrance component combined with 1,2-octanediol (50:50 by weight mixture); agar medium, 35° C., growth judged after two days
Experimental: as §1, §2, §3, §4, §5
Staphylococcus aureus and Pseudomonas were incubated at 35° C., and it was judged whether or not the bacteria had grown two days later. […]
as §9

Escherichia coli IFO3972 = assay: Dual minimum inhibitory concentration (agar dilution MIC) of 1,2-octanediol combined with a fragrance component, Escherichia coli; design: key: ◯: There is synergistic action in the antibacterial effect.; Δ: There is additive action in the antibacterial effect.; ×: There is counteraction in the antibacterial effect; conditions: fragrance component combined with 1,2-octanediol (50:50 by weight mixture); same way as Embodiment 1, E. coli instead of P. aeruginosa
Experimental: as §2, §3, §4
1 ml of each of the above-mentioned dilution series including the test material and 9 ml of the agar medium are introduced to each schales, and the above-mentioned inoculating bacteria was applied on each of the schales at the length of 1 cm. […]
as §9
Manipulating each of citronellol and β-pinene for fragrance component in the same way as in Embodiment 1 using Escherichia coli IFO3972 instead of Pseudomonas aeruginosa IF013275, each dual minimum inhibitory concentration of FIGS. 6-7 was obtained. […] From the obtained result, the antibacterial effect was evaluated by the above-mentioned evaluation criterion.

CC(=O)O[C@@H]1C[C@H]2CC[C@]1(C)C2(C)C (racemic) [isobornyl acetate, reference compound]
antibacterial effect of mixing with 1,2-octanediol, judged from dual minimum inhibitory concentration diagram, S. aureus [1]: ∘

CC(=O)OC(C)(C)C1CC=C(C)CC1 (stereo not drawn) [terpinyl acetate]
antibacterial effect of mixing with 1,2-octanediol, judged from dual minimum inhibitory concentration diagram, C. albicans (Candida albicans IFO1594): ∘
antibacterial effect of mixing with 1,2-octanediol, judged from dual minimum inhibitory concentration diagram, S. aureus [1]: ∘

Cc1ccc(C(C)C)c(O)c1 [Thymol]
antibacterial effect of mixing with 1,2-octanediol, judged from dual minimum inhibitory concentration diagram, C. albicans (Candida albicans IFO1594): ∘
antibacterial effect of mixing with 1,2-octanediol, judged from dual minimum inhibitory concentration diagram, S. aureus [1]: ∘
antibacterial effect of mixing with 1,2-octanediol, judged from dual minimum inhibitory concentration diagram, P. aeruginosa [2]: ∘

CC(C)=CCCC(C)CCO (stereo not drawn) [citronellol]
antibacterial effect of mixing with 1,2-octanediol, judged from dual minimum inhibitory concentration diagram, C. albicans (Candida albicans IFO1594): ∘
antibacterial effect of mixing with 1,2-octanediol, judged from dual minimum inhibitory concentration diagram, S. aureus [1]: ∘
antibacterial effect of mixing with 1,2-octanediol, judged from dual minimum inhibitory concentration diagram, E. coli (Escherichia coli IFO3972): ∘

CC(C)=CCCC(C)CC=O (stereo not drawn) [citronellal]
antibacterial effect of mixing with 1,2-octanediol, judged from dual minimum inhibitory concentration diagram, C. albicans (Candida albicans IFO1594): ∘
antibacterial effect of mixing with 1,2-octanediol, judged from dual minimum inhibitory concentration diagram, S. aureus [1]: ∘

guaiac acetate [reference compound]
antibacterial effect of mixing with 1,2-octanediol, judged from dual minimum inhibitory concentration diagram, S. aureus [1]: ∘

C=C1CCC2CC1C2(C)C (stereo not drawn) [β-pinene]
antibacterial effect of mixing with 1,2-octanediol, judged from dual minimum inhibitory concentration diagram, C. albicans (Candida albicans IFO1594): ∘
antibacterial effect of mixing with 1,2-octanediol, judged from dual minimum inhibitory concentration diagram, S. aureus [1]: ∘
antibacterial effect of mixing with 1,2-octanediol, judged from dual minimum inhibitory concentration diagram, E. coli (Escherichia coli IFO3972): Δ

C=CCc1ccc(O)c(OC)c1 [Eugenol]
antibacterial effect of mixing with 1,2-octanediol, judged from dual minimum inhibitory concentration diagram, C. albicans (Candida albicans IFO1594): ∘
antibacterial effect of mixing with 1,2-octanediol, judged from dual minimum inhibitory concentration diagram, S. aureus [1]: ∘
antibacterial effect of mixing with 1,2-octanediol, judged from dual minimum inhibitory concentration diagram, P. aeruginosa [2]: ∘
